In brackets after ≈: the same amount, converted by molar mass.

The experiment has as its system KB. In words: Cytotoxicity against human KB cells. The class given is functional. As to conditions: read-out: ED50 (the source's name).

On to `CO[C@H]1C[C@H](O[C@H]2CC[C@@]3(CO)[C@H](CC[C@@H]4[C@@H]3CC[C@]3(C)[C@@H](C5=CC(=O)OC5)CC[C@]43O)C2)O[C@H](C)[C@H]1O` [MAQUIROSIDE A], for which the EC50 came to 0.013 mg/L (≈ 0.0243 µM).

The values are drawn from ChEMBL document CHEMBL1150711, “Maquiroside A, a new cytotoxic cardiac glycoside from Maquira calophylla” (1987).
